Laboratory results as given in patent publication US20230085307A1, “PYRIDAZINONE COMPOUND AND HERBICIDE” (NISSAN CHEMICAL CORPORATION, priority 2019, published 2023).

How the values were obtained:
[1] = tested on: barnyard grass; experiment: Test Example 3: herbicidal effect by foliage application, Wagner pot (Table 18, symbol H); format: in vivo, barnyard grass (Echinochloa crus-galli)
Procedure, shortened: (§1)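 Plants were sown in alluvial soil held under 0.1–0.5 cm standing water and grown 14 days in a greenhouse at 25–30 °C. An emulsifiable formulation, water-diluted to the set dose, was then sprayed onto the foliage, and effects were scored three weeks later using previously defined criteria.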

[2] = tested on: Chinese sprangletop; experiment: Test Example 3: herbicidal effect by foliage application, Wagner pot (Table 18, symbol D); format: in vivo, chinese sprangletop (Leptochloa chinensis)
Procedure, shortened: as §1

[3] = tested on: rice flat sedge; experiment: Test Example 3: herbicidal effect by foliage application, Wagner pot (Table 18, symbol E); format: in vivo, rice flat sedge (Cyperus iria)
Procedure, shortened: as §1

[4] = tested on: southern crabgrass; experiment: Test Example 4: herbicidal effect by soil treatment (Table 19, symbol F); format: in vivo, southern crabgrass (Digitaria ciliaris)
Procedure, shortened: (§2)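 Seeds were sown in sterilized diluvial soil and covered with about 1.5 cm of soil. An emulsion formulation diluted with water to a predetermined herbicide amount was sprayed evenly onto the soil surface. Plants grew in a greenhouse at 25° C. to 30° C., and the effect was scored three weeks after application using criteria from an earlier test.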

[5] = tested on: green foxtail; experiment: Test Example 4: herbicidal effect by soil treatment (Table 19, symbol G); format: in vivo, green foxtail (Setaria viridis)
Procedure, shortened: as §2

[6] = tested on: barnyard grass; experiment: Test Example 4: herbicidal effect by soil treatment (Table 19, symbol H); format: in vivo, barnyard grass (Echinochloa crus-galli)
Procedure, shortened: as §2

[7] = tested on: wild oat; experiment: Test Example 4: herbicidal effect by soil treatment (Table 19, symbol I); format: in vivo, wild oat (Avena fatua)
Procedure, shortened: as §2

[8] = tested on: blackgrass; experiment: Test Example 4: herbicidal effect by soil treatment (Table 19, symbol J); format: in vivo, blackgrass (Alopecurus myosuroides)
Procedure, shortened: as §2

[9] = tested on: Italian ryegrass; experiment: Test Example 4: herbicidal effect by soil treatment (Table 19, symbol K); format: in vivo, Italian ryegrass (Lolium multiflorum)
Procedure, shortened: as §2

[10] = tested on: windgrass; experiment: Test Example 4: herbicidal effect by soil treatment (Table 19, symbol L); format: in vivo, windgrass (Apera spica-venti)
Procedure, shortened: as §2

[11] = tested on: velvetleaf; experiment: Test Example 4: herbicidal effect by soil treatment (Table 19, symbol M); format: in vivo, velvetleaf (Abutilon theophrasti)
Procedure, shortened: as §2

[12] = tested on: redroot pigweed; experiment: Test Example 4: herbicidal effect by soil treatment (Table 19, symbol N); format: in vivo, redroot pigweed (Amaranthus retroflexus)
Procedure, shortened: as §2

[13] = tested on: lambsquarters; experiment: Test Example 4: herbicidal effect by soil treatment (Table 19, symbol O); format: in vivo, lambsquarters (Chenopodium album)
Procedure, shortened: as §2

[14] = tested on: chickweed; experiment: Test Example 4: herbicidal effect by soil treatment (Table 19, symbol P); format: in vivo, common chickweed (Stellaria media)
Procedure, shortened: as §2

[15] = tested on: false cleavers; experiment: Test Example 4: herbicidal effect by soil treatment (Table 19, symbol Q); format: in vivo, false cleavers (Galium spurium)
Procedure, shortened: as §2

[16] = tested on: persian speedwell; experiment: Test Example 4: herbicidal effect by soil treatment (Table 19, symbol R); format: in vivo, Persian speedwell (Veronica persica)
Procedure, shortened: as §2

[17] = tested on: southern crabgrass; experiment: Test Example 5: herbicidal effect by foliage application, plastic box (Table 20, symbol F); format: in vivo, southern crabgrass (Digitaria ciliaris); conditions: foliage application, three weeks after application
Procedure, shortened: (§3)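 Plants sown in sterilized diluvial soil and grown 14 days in a greenhouse at 25° C to 30° C, then sprayed on the foliage with the compound's emulsion diluted in water to a predetermined herbicide amount. Injury to weeds and crops scored three weeks after application on a visual rating scale.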

[18] = tested on: green foxtail; experiment: Test Example 5: herbicidal effect by foliage application, plastic box (Table 20, symbol G); format: in vivo, green foxtail (Setaria viridis); conditions: foliage application, three weeks after application
Procedure, shortened: as §3

[19] = tested on: barnyard grass; experiment: Test Example 5: herbicidal effect by foliage application, plastic box (Table 20, symbol H); format: in vivo, barnyard grass (Echinochloa crus-galli); conditions: foliage application, three weeks after application
Procedure, shortened: as §3

[20] = tested on: wild oat; experiment: Test Example 5: herbicidal effect by foliage application, plastic box (Table 20, symbol I); format: in vivo, wild oat (Avena fatua); conditions: foliage application, three weeks after application
Procedure, shortened: as §3

[21] = tested on: blackgrass; experiment: Test Example 5: herbicidal effect by foliage application, plastic box (Table 20, symbol J); format: in vivo, blackgrass (Alopecurus myosuroides); conditions: foliage application, three weeks after application
Procedure, shortened: as §3

[22] = tested on: Italian ryegrass; experiment: Test Example 5: herbicidal effect by foliage application, plastic box (Table 20, symbol K); format: in vivo, Italian ryegrass (Lolium multiflorum); conditions: foliage application, three weeks after application
Procedure, shortened: as §3

[23] = tested on: windgrass; experiment: Test Example 5: herbicidal effect by foliage application, plastic box (Table 20, symbol L); format: in vivo, windgrass (Apera spica-venti); conditions: foliage application, three weeks after application
Procedure, shortened: as §3

[24] = tested on: velvetleaf; experiment: Test Example 5: herbicidal effect by foliage application, plastic box (Table 20, symbol M); format: in vivo, velvetleaf (Abutilon theophrasti); conditions: foliage application, three weeks after application
Procedure, shortened: as §3

[25] = tested on: redroot pigweed; experiment: Test Example 5: herbicidal effect by foliage application, plastic box (Table 20, symbol N); format: in vivo, redroot pigweed (Amaranthus retroflexus); conditions: foliage application, three weeks after application
Procedure, shortened: as §3

[26] = tested on: lambsquarters; experiment: Test Example 5: herbicidal effect by foliage application, plastic box (Table 20, symbol O); format: in vivo, lambsquarters (Chenopodium album); conditions: foliage application, three weeks after application
Procedure, shortened: as §3

[27] = tested on: chickweed; experiment: Test Example 5: herbicidal effect by foliage application, plastic box (Table 20, symbol P); format: in vivo, common chickweed (Stellaria media); conditions: foliage application, three weeks after application
Procedure, shortened: as §3

[28] = tested on: persian speedwell; experiment: Test Example 5: herbicidal effect by foliage application, plastic box (Table 20, symbol R); format: in vivo, Persian speedwell (Veronica persica); conditions: foliage application, three weeks after application
Procedure, shortened: as §3

[29] = amount of applied herbicide 320 g/ha

For `COc1ccc(-c2sc3ccccc3c2-c2c(O)c(OC)nn(C)c2=O)cc1OC` [1-182], the “herbicidal effect on H (barnyard grass), rating 0-5” value ([1]; 80 g/ha) was 4 (Herbicidal rate of 70% or more and less than 90%), the “herbicidal effect on D (Chinese sprangletop), rating 0-5” value ([2]; 80 g/ha) was 3 (Herbicidal rate of 40% or more and less than 70%) and the “herbicidal effect on E (rice flat sedge), rating 0-5” value ([3]; 80 g/ha) was 5 (Herbicidal rate of 90% or more (almost completely withered)). For the same molecule, the “F: southern crabgrass, herbicidal effect rating” value ([4]; AAH 80 g/ha) was 1 (Herbicidal rate of 5% or more and less than 20%), the “G: green foxtail, herbicidal effect rating” value ([5]; AAH 80 g/ha) was 5 (Herbicidal rate of 90% or more (almost completely withered)) and the “H: barnyard grass, herbicidal effect rating” value ([6]; AAH 80 g/ha) was 0 (Herbicidal rate of 5% or less (almost no effect)). The “I: wild oat, herbicidal effect rating” value ([7]; AAH 80 g/ha) was 0 (Herbicidal rate of 5% or less (almost no effect)), the “J: blackgrass, herbicidal effect rating” value ([8]; AAH 80 g/ha) was 0 (Herbicidal rate of 5% or less (almost no effect)) and the “K: Italian ryegrass, herbicidal effect rating” value ([9]; AAH 80 g/ha) was 0 (Herbicidal rate of 5% or less (almost no effect)). For the same molecule, the “L: windgrass, herbicidal effect rating” value ([10]; AAH 80 g/ha) was 0 (Herbicidal rate of 5% or less (almost no effect)), the “M: velvetleaf, herbicidal effect rating” value ([11]; AAH 80 g/ha) was 1 (Herbicidal rate of 5% or more and less than 20%) and the “N: redroot pigweed, herbicidal effect rating” value ([12]; AAH 80 g/ha) was 5 (Herbicidal rate of 90% or more (almost completely withered)). The “O: lambsquarters, herbicidal effect rating” value ([13]; AAH 80 g/ha) was 4 (Herbicidal rate of 70% or more and less than 90%), the “P: chickweed, herbicidal effect rating” value ([14]; AAH 80 g/ha) was 4 (Herbicidal rate of 70% or more and less than 90%) and the “Q: false cleavers, herbicidal effect rating” value ([15]; AAH 80 g/ha) was 0 (Herbicidal rate of 5% or less (almost no effect)). The “R: persian speedwell, herbicidal effect rating” value ([16]; AAH 80 g/ha) was 5 (Herbicidal rate of 90% or more (almost completely withered)), the “F: southern crabgrass, herbicidal effect” value ([17]; AAH 80 g/ha) was 3 (Herbicidal rate of 40% or more and less than 70%) and the “G: green foxtail, herbicidal effect” value ([18]; AAH 80 g/ha) was 4 (Herbicidal rate of 70% or more and less than 90%). For the same molecule, the “H: barnyard grass, herbicidal effect” value ([19]; AAH 80 g/ha) was 3 (Herbicidal rate of 40% or more and less than 70%), the “I: wild oat, herbicidal effect” value ([20]; AAH 80 g/ha) was 0 (Herbicidal rate of 5% or less (almost no effect)) and the “J: blackgrass, herbicidal effect” value ([21]; AAH 80 g/ha) was 0 (Herbicidal rate of 5% or less (almost no effect)). For the same molecule, the “K: Italian ryegrass, herbicidal effect” value ([22]; AAH 80 g/ha) was 3 (Herbicidal rate of 40% or more and less than 70%), the “L: windgrass, herbicidal effect” value ([23]; AAH 80 g/ha) was 0 (Herbicidal rate of 5% or less (almost no effect)) and the “M: velvetleaf, herbicidal effect” value ([24]; AAH 80 g/ha) was 4 (Herbicidal rate of 70% or more and less than 90%). The “N: redroot pigweed, herbicidal effect” value ([25]; AAH 80 g/ha) was 3 (Herbicidal rate of 40% or more and less than 70%), the “O: lambsquarters, herbicidal effect” value ([26]; AAH 80 g/ha) was 5 (Herbicidal rate of 90% or more (almost completely withered)) and the “P: chickweed, herbicidal effect” value ([27]; AAH 80 g/ha) was 5 (Herbicidal rate of 90% or more (almost completely withered)). For the same molecule, the “R: persian speedwell, herbicidal effect” value ([28]; AAH 80 g/ha) was 5 (Herbicidal rate of 90% or more (almost completely withered)).
With `C=CCSc1ccc(-c2sc3ccc(F)cc3c2-c2c(O)c(C)nn(C)c2=O)cc1` [2-422] the “herbicidal effect on H: barnyard grass” value [1, 29] was 5 (Herbicidal rate of 90% or more (almost completely withered)), the “herbicidal effect on D: Chinese sprangletop” value [2, 29] was 3 (Herbicidal rate of 40% or more and less than 70%) and the “herbicidal effect on E: rice flat sedge” value [3, 29] was 5 (Herbicidal rate of 90% or more (almost completely withered)). The “herbicidal effect, F: southern crabgrass” value [4, 29] was 1 (Herbicidal rate of 5% or more and less than 20%), the “herbicidal effect, G: green foxtail” value [5, 29] was 2 (Herbicidal rate of 20% or more and less than 40%) and the “herbicidal effect, H: barnyard grass” value [6, 29] was 1 (Herbicidal rate of 5% or more and less than 20%). For the same molecule, the “herbicidal effect, I: wild oat” value [7, 29] was 0 (Herbicidal rate of 5% or less (almost no effect)), the “herbicidal effect, J: blackgrass” value [8, 29] was 0 (Herbicidal rate of 5% or less (almost no effect)) and the “herbicidal effect, K: Italian ryegrass” value [9, 29] was 0 (Herbicidal rate of 5% or less (almost no effect)). The “herbicidal effect, L: windgrass” value [10, 29] was 0 (Herbicidal rate of 5% or less (almost no effect)), the “herbicidal effect, M: velvetleaf” value [11, 29] was 1 (Herbicidal rate of 5% or more and less than 20%) and the “herbicidal effect, N: redroot pigweed” value [12, 29] was 5 (Herbicidal rate of 90% or more (almost completely withered)). The “herbicidal effect, O: lambsquarters” value [13, 29] was 3 (Herbicidal rate of 40% or more and less than 70%), the “herbicidal effect, P: chickweed” value [14, 29] was 0 (Herbicidal rate of 5% or less (almost no effect)) and the “herbicidal effect, Q: false cleavers” value [15, 29] was 0 (Herbicidal rate of 5% or less (almost no effect)). The “herbicidal effect, R: persian speedwell” value [16, 29] was 0 (Herbicidal rate of 5% or less (almost no effect)), the “F: southern crabgrass, herbicidal effect grade” value ([17]; 320 g/ha) was 2 (Herbicidal rate of 20% or more and less than 40%) and the “G: green foxtail, herbicidal effect grade” value ([18]; 320 g/ha) was 5 (Herbicidal rate of 90% or more (almost completely withered)). The “H: barnyard grass, herbicidal effect grade” value ([19]; 320 g/ha) was 5 (Herbicidal rate of 90% or more (almost completely withered)), the “I: wild oat, herbicidal effect grade” value ([20]; 320 g/ha) was 5 (Herbicidal rate of 90% or more (almost completely withered)) and the “J: blackgrass, herbicidal effect grade” value ([21]; 320 g/ha) was 4 (Herbicidal rate of 70% or more and less than 90%). The “K: Italian ryegrass, herbicidal effect grade” value ([22]; 320 g/ha) was 5 (Herbicidal rate of 90% or more (almost completely withered)), the “L: windgrass, herbicidal effect grade” value ([23]; 320 g/ha) was 5 (Herbicidal rate of 90% or more (almost completely withered)) and the “M: velvetleaf, herbicidal effect grade” value ([24]; 320 g/ha) was 5 (Herbicidal rate of 90% or more (almost completely withered)). For the same molecule, the “N: redroot pigweed, herbicidal effect grade” value ([25]; 320 g/ha) was 5 (Herbicidal rate of 90% or more (almost completely withered)), the “O: lambsquarters, herbicidal effect grade” value ([26]; 320 g/ha) was 5 (Herbicidal rate of 90% or more (almost completely withered)) and the “P: chickweed, herbicidal effect grade” value ([27]; 320 g/ha) was 5 (Herbicidal rate of 90% or more (almost completely withered)). For the same molecule, the “R: persian speedwell, herbicidal effect grade” value ([28]; 320 g/ha) was 5 (Herbicidal rate of 90% or more (almost completely withered)).
